Columns and labels:
Assay in all cases: normalised response (% of control), CellTiter-Glo; higher = more viable cells (100 = DMSO, 0 = benzethonium chloride kill control)
Conditions in all cases: incubation time: 72 h
[1] = test system: BT-474
Experimental: (§1)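 DSRT, 72 h incubation, CellTox Green / CellTiter-Glo readout. Signal is normalised to DMSO and benzethonium chloride controls. Value is the normalised response at the highest dose.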

[2] = test system: BT-549
Experimental: as §1

[3] = test system: CAL-120
Experimental: as §1

[4] = test system: CAL-148
Experimental: as §1

[5] = test system: CAL-51
Experimental: as §1

[6] = test system: CAL-85-1
Experimental: as §1

[7] = test system: DU-4475
Experimental: as §1

[8] = test system: HCC1143
Experimental: as §1

[9] = test system: HCC1599
Experimental: as §1

[10] = test system: HCC1937
Experimental: as §1

[11] = test system: HDQ-P1
Experimental: as §1

[12] = test system: Hs578T
Experimental: as §1

[13] = test system: MCF-10A
Experimental: as §1

[14] = test system: MDA-MB-231
Experimental: as §1

[15] = test system: MDA-MB-436
Experimental: as §1

[16] = test system: MDA-MB-453
Experimental: as §1

[17] = test system: MDA-MB-468
Experimental: as §1

[18] = test system: MFM-223
Experimental: as §1

[19] = test system: SK-BR-3
Experimental: as §1

Compound | normalised response [1] [%] | normalised response [2] [%] | normalised response [3] [%] | normalised response [4] [%] | normalised response [5] [%] | normalised response [6] [%] | normalised response [7] [%] | normalised response [8] [%] | normalised response [9] [%] | normalised response [10] [%] | normalised response [11] [%] | normalised response [12] [%] | normalised response [13] [%] | normalised response [14] [%] | normalised response [15] [%] | normalised response [16] [%] | normalised response [17] [%] | normalised response [18] [%] | normalised response [19] [%]
CCOc1cc2ncc(C#N)c(Nc3ccc(OCc4ccccn4)c(Cl)c3)c2cc1NC(=O)/C=C/CN(C)C [Neratinib] (1000 nM) | 79.1 | 56.1 | 68.4 | 68.8 | 45 | 42.6 | 95.3 | 72.7 | 95.5 | 66.1 | 46.3 | 72.3 | 25.4 | 74.2 | 56.3 | 63.7 | 36.4 | 62.8 | 16.2
COc1ccc(C2=N[C@@H](c3ccc(Cl)cc3)[C@@H](c3ccc(Cl)cc3)N2C(=O)N2CCNC(=O)C2)c(OC(C)C)c1 [Nutlin-3] (10000 nM) | 93.3 | 87 | 100 | 71.4 | 50.7 | 97.3 | 72.7 | 92.9 | 98.5 | 97.6 | 97.1 | 102 | 89.2 | 91.9 | 102 | 68.7 | 78.9 | 93.3 | 99.1
COC1=CC(c2cc3ccccc3[nH]2)=N/C1=C\c1[nH]c(C)cc1C [Obatoclax] (10000 nM) | 70.5 | 29.3 | 92.5 | 76.5 | 7.62 | 76.3 | 84 | 92 | 88.2 | 67.7 | 91.1 | 74.7 | 95.8 | 66.9 | 81.6 | 57.5 | 79.3 | 71.2 | 64.3
CC(=O)O[C@H]1C(=O)[C@@]2(C)[C@H]([C@H](OC(=O)c3ccccc3)[C@]3(O)C[C@H](OC(=O)[C@H](O)[C@@H](NC(=O)c4ccccc4)c4ccccc4)C(C)=C1C3(C)C)[C@]1(OC(C)=O)CO[C@@H]1C[C@@H]2O [Paclitaxel] (1000 nM) | 29.5 | 12.1 | 48.9 | 44.1 | 26.2 | 20.4 | 34.8 | 31.2 | 33.6 | 64.7 | 61.2 | 9.73 | 32.3 | 25.3 | 27 | 51.5 | 23.9 | 38.8 | 11.2
CC(C)(C)c1cc(NC(=O)Nc2ccc(-c3cn4c(n3)sc3cc(OCCN5CCOCC5)ccc34)cc2)no1 [Quizartinib] (1000 nM) | 101 | 91.7 | 112 | 108 | 125 | 106 | 105 | 108 | 88.6 | 104 | 103 | 92.6 | 109 | 113 | 109 | 97 | 114 | 105 | 103
O=C(c1ccc(OCCN2CCCCC2)cc1)c1c(-c2ccc(O)cc2)sc2cc(O)ccc12 [Raloxifene] (10000 nM) | 62.3 | 70.7 | 82.2 | 99.4 | 104 | 76.7 | 90.1 | 101 | 49.1 | 79.1 | 86.8 | 96.9 | 107 | 68.5 | 71.8 | 66.1 | 46.1 | 62.5 | 82.7
Cn1c(=O)c(F)c(Nc2ccc(I)cc2F)c2c(=O)n(C[C@@H](O)CO)cnc21 [TAK-733] (1000 nM) | 57.4 | 84 | 64.2 | 98.9 | 78.2 | 43.1 | 0.81 | 76.7 | 82 | 68.3 | 55.3 | 70.2 | 35.5 | 56.4 | 76.8 | 97.7 | 73.6 | 70.2 | 105
CCS(=O)(=O)c1cccc(-c2cc(C(=O)NC3CCN(C)CC3)c(C)c3[nH]c4ncc(C)cc4c23)c1 [TAK-901] (1000 nM) | 31.6 | 28.7 | 52.8 | 92.8 | 49.8 | 73.4 | 84.9 | 44.4 | 82.3 | 64.5 | 39.4 | 75.2 | 25.4 | 23 | 57 | 104 | 36.4 | 45.9 | 80.4
